This passage reports TGI results from PubChem BioAssay (NCI).

Test systems include SW-620 colon; HCC-2998 colon; NCI-H23 lung; BT-549 breast; SK-MEL-2 melanoma; HCT-15 colon; HT29 colon; A549 NSCLC; SK-MEL-5 melanoma; DU-145 prostate; 786-0 renal; HOP-92 NSCLC; NCI-H522 lung; CAKI-1 renal; HS 578T breast; SF-268 CNS; TK-10 renal; IGROV1 ovarian; SNB-75 CNS; T-47D breast.
Common to all, as to assay: NCI anticancer screen, dose series, 48 h

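Dose response: 5 concentrations. Exposure: 48 h. Format: 96-well plates. Endpoint: linear interpolation; highest concentration if not reached. Definition used: TGI = concentration required for complete inhibition of growth.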

Take `C=C1CCCC2[C@](C)(CC3=C(Cl)C(=O)C=C(OC)C3=O)C(C)CC[C@]12C` (stereo partly specified): the TGI turned out to be 10.4 µM with SW-620 colon; 23.9 µM in the experiment with HCC-2998 colon; 13.1 µM in the experiment on NCI-H23 lung; 11.4 µM in the experiment with BT-549 breast; 13.5 µM with SK-MEL-2 melanoma; 13.9 µM in the experiment with HCT-15 colon. For the same compound, the TGI was 7.37 µM with HT29 colon; 11.1 µM with A549 NSCLC; 12.5 µM with SK-MEL-5 melanoma; 15.2 µM in the experiment on DU-145 prostate; 6.53 µM with 786-0 renal; 14.7 µM in the experiment on HOP-92 NSCLC. Also, the TGI in the experiment with NCI-H522 lung is 3.18 µM; with CAKI-1 renal it was 8.83 µM; in the experiment with HS 578T breast, 26 µM; in the experiment with SF-268 CNS, 11.6 µM; with TK-10 renal, 11.6 µM; in the experiment with IGROV1 ovarian, 4.76 µM.
For the compound `c1ccc2c(c1)NCCC(=NC1CCCCC1)N2`, the TGI in the experiment with SW-620 colon, in the experiment on NCI-H23 lung, with BT-549 breast, with SK-MEL-2 melanoma, in the experiment on SNB-75 CNS and in the experiment on HCT-15 colon was more than 100 µM in each case. Moreover, the TGI in the experiment on HT29 colon, in the experiment on A549 NSCLC, in the experiment on SK-MEL-5 melanoma, with DU-145 prostate, with 786-0 renal and with NCI-H522 lung was more than 100 µM each time. Further, the TGI with CAKI-1 renal, in the experiment with HS 578T breast, in the experiment with SF-268 CNS, in the experiment with TK-10 renal and in the experiment with IGROV1 ovarian was more than 100 µM throughout.
For `CCN(CC)Cc1cc(Nc2c3ccccc3nc3c2[nH]c2ccccc23)cc(CN(CC)CC)c1O`, the TGI turned out to be 2.47 µM in the experiment with SW-620 colon; 2.27 µM in the experiment on HCC-2998 colon; 2.62 µM in the experiment on NCI-H23 lung; 2.83 µM in the experiment with BT-549 breast; 3.24 µM with SK-MEL-2 melanoma; 2.97 µM in the experiment with SNB-75 CNS. The TGI was determined as 3.4 µM in the experiment on HCT-15 colon; 5.1 µM in the experiment on HT29 colon; 10.4 µM with A549 NSCLC; 2.95 µM with SK-MEL-5 melanoma; 7.99 µM with DU-145 prostate; 0.974 µM in the experiment on 786-0 renal. Further, the TGI worked out at 3.86 µM with HOP-92 NSCLC; 2.47 µM with NCI-H522 lung; 4.26 µM with CAKI-1 renal; 4.71 µM in the experiment with HS 578T breast; 4.73 µM in the experiment with SF-268 CNS; 11.7 µM with TK-10 renal. Also, the TGI with IGROV1 ovarian came out at 3.29 µM.
`O=C(Cn1cc(-c2ccccc2)nn1)NC1CCCCC1`: the TGI with SW-620 colon, in the experiment with HCC-2998 colon, in the experiment on NCI-H23 lung, in the experiment on BT-549 breast, in the experiment on SK-MEL-2 melanoma and in the experiment on SNB-75 CNS was more than 100 µM in each case. Further, the TGI with HCT-15 colon, in the experiment with HT29 colon, in the experiment with A549 NSCLC, in the experiment with SK-MEL-5 melanoma, in the experiment with DU-145 prostate and with 786-0 renal was more than 100 µM in each case. Further, the TGI with HOP-92 NSCLC, in the experiment on NCI-H522 lung, with CAKI-1 renal, with SF-268 CNS, in the experiment with TK-10 renal and with IGROV1 ovarian was more than 100 µM each time.
For the compound `CCCC(=O)Nc1cc(/C=C/C(=O)N2CC(CCl)c3c2cc(OCc2ccccc2)c2[nH]cc(C)c32)n(C)c1` (stereo unspecified), the TGI in the experiment with T-47D breast is 1.7 µM; in the experiment on SW-620 colon, more than 25 µM; in the experiment with NCI-H23 lung, 0.0654 µM; with BT-549 breast, 3.14 µM; in the experiment on SK-MEL-2 melanoma, 0.218 µM; in the experiment on SNB-75 CNS, 0.381 µM. Also, the TGI in the experiment with HCT-15 colon amounted to 0.93 µM; in the experiment on HT29 colon it was 0.488 µM; with SK-MEL-5 melanoma it was 0.131 µM; in the experiment with 786-0 renal, 2.89 µM; with HOP-92 NSCLC, 0.213 µM; with NCI-H522 lung, 0.0267 µM. The TGI is 2.09 µM with CAKI-1 renal; 0.468 µM with HS 578T breast; 0.907 µM with SF-268 CNS; 2.47 µM in the experiment on TK-10 renal; more than 25 µM with IGROV1 ovarian.
Regarding `C1=NCCN2CCN(CCN=Cc3ccccc3OCc3cccc(n3)COc3ccccc31)CC2`, the TGI in the experiment on SW-620 colon was more than 50 µM; in the experiment on NCI-H23 lung, more than 50 µM; with BT-549 breast, 25.9 µM; in the experiment on SK-MEL-2 melanoma it was more than 50 µM; in the experiment with SNB-75 CNS, 32.5 µM; in the experiment on HCT-15 colon it was 21.4 µM. The TGI in the experiment on HT29 colon was 18.5 µM; with A549 NSCLC, more than 50 µM; with DU-145 prostate it was 35.7 µM; in the experiment on 786-0 renal, 39.5 µM; with HOP-92 NSCLC it was 41.6 µM; in the experiment on NCI-H522 lung it was more than 50 µM. Besides, the TGI stood at 4.43 µM in the experiment with HS 578T breast, 21.1 µM with SF-268 CNS, 24.9 µM in the experiment on TK-10 renal and 37.2 µM in the experiment on IGROV1 ovarian.
Turning to `CC1(C)CC(=O)C(/C=N/C(N)=S)=C(O)C1`, the TGI with SW-620 colon, in the experiment with HCC-2998 colon, with NCI-H23 lung, in the experiment on BT-549 breast, in the experiment with SK-MEL-2 melanoma and in the experiment on SNB-75 CNS was more than 100 µM each time. Besides, the TGI in the experiment with HCT-15 colon, in the experiment on HT29 colon, in the experiment with A549 NSCLC, in the experiment with SK-MEL-5 melanoma, in the experiment with DU-145 prostate and in the experiment with 786-0 renal was more than 100 µM each time. Also, the TGI in the experiment with HOP-92 NSCLC, in the experiment on NCI-H522 lung, with CAKI-1 renal, in the experiment with HS 578T breast, with SF-268 CNS and in the experiment on TK-10 renal was more than 100 µM each time. This compound also had a TGI in the experiment on IGROV1 ovarian of more than 100 µM.
In the case of `O=C1c2cccnc2S(=O)(=O)N1c1ccc(Oc2ccccc2)cc1`, the TGI in the experiment with T-47D breast, in the experiment with SW-620 colon, with HCC-2998 colon, in the experiment on NCI-H23 lung, with BT-549 breast and in the experiment with SK-MEL-2 melanoma was more than 100 µM each time. Besides, the TGI with SNB-75 CNS, in the experiment on HCT-15 colon, in the experiment on HT29 colon, in the experiment with A549 NSCLC, with DU-145 prostate and in the experiment on 786-0 renal was more than 100 µM throughout. Further, the TGI in the experiment on HOP-92 NSCLC, in the experiment with NCI-H522 lung, with CAKI-1 renal, in the experiment on SF-268 CNS and with IGROV1 ovarian was more than 100 µM throughout.
